Measurements as given in publication PMC10985113, “Exploring bi-carbazole-linked triazoles as inhibitors of prolyl endo peptidase via integrated in vitro and in silico study” (Scientific Reports, 2024).

Legend:
[1] = tested on: human fibroblast BJ cell line; test: Cytotoxicity evaluation (MTT) on BJ cell line; type: cell-based; conditions: BJ cells; for Cytotoxicity effect / % Inhibition ± SEM (µM): 60 µM; for % Inhibition of cell viability (60 µM) / inhibition at 60 µM / % Inhibition ± SEM (µM): 48 h; for inhibition at 60 µM: Homo sapiens, read-out: % Inhibition ± SEM; for inhibition at 60 µM / % Inhibition ± SEM (µM): mean of three
Description: To investigate the cytotoxic effect of these compounds we proceeded all the active compounds 3–9 for their in-vitro study by using BJ cell line. Here we designed our experiment with a specific count of the cells with 6 × 10^4 cells/well were employed into the plate. In each well we added 100 µL followed by 24 h incubation at specific temperature 37 °C in 5% CO2. After that, the 96-well plate was incubated with 50 µL/well (60 µM) of the tested compounds along with 150 µL/well fresh media for 48 h at the similar specific experimental conditions. After 2nd time of incubation, the old media was replaced with 200 µL yellow MTT dye in each well according to 1:10 ratio with the media followed by 4-h incubation. In the next step the dye was removed completely and DMSO (Dimethyl sulfoxide) cell culture grade 100 µL/well was employed into the 96-well plate to dissolve the produced formazan crystals of MTT dye converted into purple. At the end of experiment the obtained changes in the (OD) optical density was monitored at 540 by using spectrophotometer.

prolyl endopeptidase = prolyl endopeptidase (Elizabethkingia meningoseptica, UniProt P27028); test: In vitro prolyl endopeptidase inhibitory assay (spectrophotometric, Z-Gly-Pro-4-nitroanilide substrate); type: biochemical; conditions: triplicate, ± SEM; read-out: (IC50 ± µM) in vitro prolyl endo peptidase inhibitory activity
prolyl endopeptidase, sequence (P27028 21-705): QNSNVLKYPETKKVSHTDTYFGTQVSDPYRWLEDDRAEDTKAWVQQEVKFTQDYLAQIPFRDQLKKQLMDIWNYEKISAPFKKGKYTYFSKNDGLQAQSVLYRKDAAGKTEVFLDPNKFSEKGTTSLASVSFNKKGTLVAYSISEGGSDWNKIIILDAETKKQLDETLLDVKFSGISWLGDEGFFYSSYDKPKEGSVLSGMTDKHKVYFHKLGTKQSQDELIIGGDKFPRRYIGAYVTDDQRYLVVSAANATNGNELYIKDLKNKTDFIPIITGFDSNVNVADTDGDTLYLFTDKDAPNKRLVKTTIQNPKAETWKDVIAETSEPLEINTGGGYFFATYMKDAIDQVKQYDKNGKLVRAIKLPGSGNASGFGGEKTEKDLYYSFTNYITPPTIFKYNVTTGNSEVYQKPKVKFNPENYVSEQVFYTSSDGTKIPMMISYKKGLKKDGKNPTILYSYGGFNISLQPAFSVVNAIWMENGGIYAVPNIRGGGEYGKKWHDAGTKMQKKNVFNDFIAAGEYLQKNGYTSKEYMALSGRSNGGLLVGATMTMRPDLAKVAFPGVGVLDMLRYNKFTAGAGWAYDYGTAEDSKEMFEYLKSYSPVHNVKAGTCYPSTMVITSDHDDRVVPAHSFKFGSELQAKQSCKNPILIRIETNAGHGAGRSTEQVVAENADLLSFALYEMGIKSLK
Description: Prolyl endopeptidase inhibitory activity was measured using a slightly modified version of Yoshimoto et al. spectrophotometric technique. In a 96-well plate, 140 µL of sodium phosphate buffer (50 mM, pH 7.0), 20 µL of the test substance (0.5 mM in methanol), and 20 µL of prolyl endopeptidase solution (0.02 U/well) were added to provide a total reaction volume of […]. Blank contained 20 µL methanol, instead of the test compound, while Z-prolyl-prolinal (0.5 mM) was used as the positive control. After the reaction mixture had been incubated at 30 °C for 10 min. Now 20 µL of the substrate solution, Z-Gly-Pro-4-nitroanilide (0.4 mM in 1,4-dioxane), was added, and a 96-well plate reader was used to continually monitor the change in absorbance at 410 nm for 30 min (SpectraMax-384, Molecular Devices, CA, USA). The reaction mixture's ultimate methanol and 1,4-dioxane concentrations were 10% v/v. In 96-well microplates, each reaction was carried out in triplicate.
The current study's experiments were all carried out in triplicate, and the data were presented as the standard error of the mean (SEM). Using the statistical software EZ-FIT enzyme kinetics, the IC50 values were determined (Perrella Scientific, Inc., Amherst, NH 03031, USA). […] (1) and (2).1 %Inhibition=100-O.Dtestcompound/O.Dcontrol×100 2 SE=σ/n

prolyl endo peptidase = test: Kinetic studies (Lineweaver-Burk, Dixon plots) on PEP; type: biochemical; conditions: for Ki: substrate Z-Gly-Pro-pNA 0.2-0.5 mM
Description: Secondary replot of Line weaver-Burk plot between the slopes of each line on-Line weaver-Burk plot versus different concentrations of compounds 7, 8 (B, E). Dixon plot of reciprocal of rate of reaction (velocities) versus different concentrations of compounds 7, 8 (C, F).
In kinetic study PEP (0.02 U/200 L) was incubated with a range of inhibitor different concentrations for 10 min at 30 °C. The substrate was often utilized at doses between 0.2 and 0.5 mM. The substrate solutions (Z-Gly-Pro-pNA) were added at four different concentrations (0.2, 0.3, 0.4, and 0.5 mM), starting with the lowest concentration and working up to the highest concentration, to begin the catalytic reaction. Using a 96-well plate reader, the catalytic activity of PEP was measured at 410 nm (SpectraMax-384, Molecular Devices, CA, USA).

| Compound | Cytotoxicity effect [1] | % Inhibition of cell viability (60 µM) ([1]; first replicate column) [%] | % Inhibition of cell viability (60 µM) ([1]; second replicate column) [%] | % Inhibition of cell viability (60 µM) ([1]; third replicate column) [%] | inhibition at 60 µM [1] [%] | IC50 (prolyl endopeptidase) [µM] | % Inhibition ± SEM (µM) [1] [%] | type (pattern) of inhibition (prolyl endo peptidase) | Ki (prolyl endo peptidase) [µM] |
| --- | --- | --- | --- | --- | --- | --- | --- | --- | --- |
| C=Cn1c2ccccc2c2ccccc21 [Compound 3] | Non-toxic | 26.34 | 22.74 | 23.95 | 24.4 ± 1.1 |  |  |  |  |
| C=Cn1c2ccccc2c2cc(-c3ccc4c(c3)c3ccccc3n4C=C)ccc21 [Compound 4] | Non-toxic | 22.75 | 21.55 | 26.34 | 23.6 ± 1.44 |  |  |  |  |
| O=C(Cn1cc(Cn2c3ccccc3c3cc(-c4ccc5c(c4)c4ccccc4n5Cc4cn(CC(=O)c5ccccc5)nn4)ccc32)nn1)c1ccccc1 [Compound 5] | Non-toxic | 25.14 | 22.74 | 20.35 | 22.8 ± 1.38 |  |  |  |  |
| Cc1ccc(C(=O)Cn2cc(Cn3c4ccccc4c4cc(-c5ccc6c(c5)c5ccccc5n6Cc5cn(CC(=O)c6ccc(C)cc6)nn5)ccc43)nn2)cc1 [Compound 6] | Non-toxic | 21.55 | 20.35 | 23.95 | 21.9 ± 1.05 |  |  |  |  |
| O=C(Cn1cc(Cn2c3ccccc3c3cc(-c4ccc5c(c4)c4ccccc4n5Cc4cn(CC(=O)c5ccc(Cl)cc5)nn4)ccc32)nn1)c1ccc(Cl)cc1 [Compound 7] | Non-toxic | 20.35 | 26.34 | 25.14 |  | 26.3 ± 0.76 | 23.95 ± 1.83 | mixed | 24.1 ± 0.0076 |
| O=C(Cn1cc(Cn2c3ccccc3c3cc(-c4ccc5c(c4)c4ccccc4n5Cc4cn(CC(=O)c5ccc(Br)cc5)nn4)ccc32)nn1)c1ccc(Br)cc1 [Compound 8] | Non-toxic | 19.52 | 25.14 | 25.14 |  | 28.3 ± 0.64 | 23.27 ± 1.87 | mixed | 23.67 ± 0.0084 |
| COc1ccc(C(=O)Cn2cc(Cn3c4ccccc4c4cc(-c5ccc6c(c5)c5ccccc5n6Cc5cn(CC(=O)c6ccc(OC)cc6)nn5)ccc43)nn2)cc1 [Compound 9] | Non-toxic | 16.75 | 21.55 | 19.16 |  | 31.1 ± 0.84 | 19.16 ± 1.38 |  |  |
| Bacitracin [reference compound] |  |  |  |  |  | 125 ± 1.5 |  |  |  |
